Experimental data taken from US6417187B2, “1,2,4-triazole based compounds that can be used as insecticides or acaricides and processes” (Dow AgroSciences LLC, priority 2000, dated 2002).

Legend:
Format in all cases: in vivo
[1] = test system: Brown Planthopper (Nilaparvata lugens); test: Insecticidal test for Brown Planthopper (rice seedling roots in test solution)
[2] = test system: cabbage looper (Trichoplusia ni); test: Insecticidal test for cabbage looper (cabbage leaf-disc dip); settings: for pest or weed control at 400 ppm: Trichoplusia ni, 120 h, read-out: CL: activity at 400 ppm against cabbage looper (% Control rating)
[3] = test system: tobacco budworm (Heliothis virescens); test: Insecticidal test for tobacco budworm (cotton cotyledon leaf-disc dip); settings: 400 ppm, cotton cotyledon leaf-dip, 2nd instar larvae, 5 days
[4] = test system: beet armyworm (Spodoptera exigua); test: Insecticidal test for beet armyworm (treated lepidopteran diet); settings: for pest or weed control at 400 ppm: Spodoptera exigua, 120 h, read-out: BAW: activity at 400 ppm against beet armyworm (% Control rating)
[5] = test system: Sweetpotato Whitefly (Bemisia tabacia); test: Insecticidal test for Sweetpotato Whitefly (cotton plant spray); settings: for pest or weed control at 200 ppm: Bemisia, 312 h, read-out: WF: activity at 200 ppm against whitefly (% Control rating)
[6] = test system: Green Leafhopper (Nephotettix cincticeps); test: Insecticidal test for Green Leafhopper (rice seedling roots in test solution)
[7] = test system: cotton aphid (Aphis gossvpii); test: Insecticidal test for cotton aphid (squash cotyledon spray); settings: for pest or weed control at 50 ppm: 72 h, read-out: CA: activity at 50 ppm against cotton aphid (% Control rating)
[8] = 10 ppm test solution, rice seedling roots, 3rd instar nymphs, mortality at 6 days
[9] = 400 ppm, cabbage leaf-dip, 2nd instar larvae, 5 days
[10] = 400 ppm, treated diet, second-instar larvae, 5 days
[11] = 200 ppm spray on cotton plants, 13 days, reduction of large nymphs
[12] = 50 ppm spray on infested squash cotyledons, 3 days, population reduction versus untreated

SMILES	BPH: activity at 10 ppm against brown planthopper (% Control rating) [1, 8]	CL: activity at 400 ppm against cabbage looper (% Control rating) [2, 9]	TBW: activity at 400 ppm against tobacco budworm (% Control rating) [3]	BAW: activity at 400 ppm against beet armyworm (% Control rating) [4, 10]	WF: activity at 200 ppm against whitefly (% Control rating) [5, 11]	CA: activity at 50 ppm against cotton aphid (% Control rating) [7, 12]	also measured
Cn1nc(-c2c(F)cccc2Cl)nc1-c1sc(C#Cc2ccccc2F)c(Cl)c1Cl [Compound 9]	F (less than 50)	A (90-100)	A (90-100)	B (80-89)	F (less than 50)	–	–
Cn1nc(-c2c(F)cccc2Cl)nc1-c1sc(C#Cc2ccc(F)cc2)c(Cl)c1Cl [Compound 12]	F (less than 50)	A (90-100)	–	A (90-100)	F (less than 50)	C (70-79)	GLH: activity at 10 ppm against green leafbopper (% Control rating) [6, 8]: F (less than 50)
CCCc1ccc(C#Cc2sc(-c3nc(-c4c(F)cccc4Cl)nn3C)c(Cl)c2Cl)cc1 [Compound 14]	F (less than 50)	A (90-100)	A (90-100)	A (90-100)	F (less than 50)	A (90-100)	–
CCCOc1ccc(C#Cc2sc(-c3nc(-c4c(F)cccc4Cl)nn3C)c(Cl)c2Cl)cc1 [Compound 15]	F (less than 50)	D (60-69)	F (less than 50)	D (60-69)	F (less than 50)	D (60-69)	GLH: activity at 10 ppm against green leafbopper (% Control rating) [6, 8]: F (less than 50)
Cn1nc(-c2c(F)cccc2Cl)nc1-c1sc(C#Cc2ccc(-c3ccccc3)cc2)c(Cl)c1Cl [Compound 16]	F (less than 50)	D (60-69)	–	F (less than 50)	F (less than 50)	F (less than 50)	GLH: activity at 10 ppm against green leafbopper (% Control rating) [6, 8]: F (less than 50)
Cn1nc(-c2c(F)cccc2Cl)nc1-c1sc(C#Cc2ccc(F)cc2F)c(Cl)c1Cl [Compound 23, 3-(2-chloro-6-fluorophenyl)-5-(5-(2,4-difluorophenylalkynyl)-3,4-dichloro-2-thiophene)-1-methyl-1H-1,2,4-triazole]	–	–	–	–	–	–	GLH: activity at 10 ppm against green leafbopper (% Control rating) [6, 8]: F (less than 50); pest or weed control at 400 ppm [2, 9]: 90 to 100%; pest or weed control at 400 ppm [4, 10]: 90 to 100%; pest or weed control at 50 ppm [7, 12]: < 50%; pest or weed control at 200 ppm [5, 11]: < 50%
Cn1nc(-c2c(F)cccc2Cl)nc1-c1sc(C#Cc2ccsc2)c(Cl)c1Cl [Compound 46]	F (less than 50)	D (60-69)	–	D (60-69)	F (less than 50)	E (50-59)	–
Cn1nc(-c2c(F)cccc2Cl)nc1-c1sc(C#Cc2ccc(F)c(C(F)(F)F)c2)c(Cl)c1Cl [Compound 47]	F (less than 50)	A (90-100)	A (90-100)	A (90-100)	–	C (70-79)	–
COc1ccc(C#Cc2sc(-c3nc(-c4c(F)cccc4Cl)nn3C)c(Cl)c2Cl)cc1Cl [Compound 48]	F (less than 50)	A (90-100)	–	A (90-100)	–	D (60-69)	–
CCOc1ccc(C#Cc2sc(-c3nc(-c4c(F)cccc4Cl)nn3C)c(Cl)c2Cl)cc1C(F)(F)F [Compound 49]	F (less than 50)	A (90-100)	D (60-69)	A (90-100)	F (less than 50)	F (less than 50)	–
Cc1cc(F)ccc1C#Cc1sc(-c2nc(-c3c(F)cccc3Cl)nn2C)c(Cl)c1Cl [Compound 52]	–	A (90-100)	A (90-100)	A (90-100)	F (less than 50)	D (60-69)	–
CCCCCCCOc1ccc(C#Cc2sc(-c3nc(-c4c(F)cccc4Cl)nn3C)c(Cl)c2Cl)cc1 [Compound 56]	F (less than 50)	A (90-100)	A (90-100)	A (90-100)	F (less than 50)	E (50-59)	–
CCCc1ccc(C#Cc2sc(-c3nc(-c4c(F)cccc4Cl)nn3CC)c(Cl)c2Cl)cc1 [Compound 81]	–	D (60-69)	F (less than 50)	A (90-100)	F (less than 50)	F (less than 50)	–
CCCCn1nc(-c2c(F)cccc2Cl)nc1-c1sc(C#Cc2ccc(CCC)cc2)c(Cl)c1Cl [Compound 82]	–	A (90-100)	–	D (60-69)	F (less than 50)	F (less than 50)	–
COc1ccc(C#Cc2sc(-c3nc(-c4c(Cl)cncc4Cl)nn3C)c(Cl)c2Cl)cc1 [Compound 87]	–	F (less than 50)	F (less than 50)	F (less than 50)	–	–	–
CCCc1ccc(C#Cc2ccc(-c3nc(-c4c(F)cccc4Cl)nn3C)c(Cl)c2Cl)cc1 [Compound 90]	–	–	–	–	–	–	BPH: activity at 10 ppm against brown planthopper (% Control rating) ([1]; in vivo): E (key: A: 90-100; B: 80-89; C: 70-79; D: 60-69; E: 50-59; F: less than 50; G: inactive); GLH: activity at 10 ppm against green leafbopper (% Control rating) ([6]; in vivo): F (key: A: 90-100; B: 80-89; C: 70-79; D: 60-69; E: 50-59; F: less than 50; G: inactive); CL: activity at 400 ppm against cabbage looper (% Control rating) ([2]; in vivo): A (key: A: 90-100; B: 80-89; C: 70-79; D: 60-69; E: 50-59; F: less than 50; G: inactive); BAW: activity at 400 ppm against beet armyworm (% Control rating) ([4]; in vivo): A (key: A: 90-100; B: 80-89; C: 70-79; D: 60-69; E: 50-59; F: less than 50; G: inactive); CA: activity at 50 ppm against cotton aphid (% Control rating) ([7]; in vivo): B (key: A: 90-100; B: 80-89; C: 70-79; D: 60-69; E: 50-59; F: less than 50; G: inactive); WF: activity at 200 ppm against whitefly (% Control rating) ([5]; in vivo): F (key: A: 90-100; B: 80-89; C: 70-79; D: 60-69; E: 50-59; F: less than 50; G: inactive)
Cn1nc(-c2c(F)cccc2Cl)nc1-c1ccc(C#Cc2ccc(C(F)(F)F)cc2)c(Cl)c1Cl [Compound 94, 1-Methyl-3-(2-Chloro-6-fluorophenyl)-5-(2,3-dichloro-4-(2-(4-trifluoromethyl)phenyl)-ethynyl-phenyl)-1 H[1,2,4]triazole]	–	–	–	–	–	–	pest or weed control at 400 ppm [2, 9]: 90 to 100%; pest or weed control at 400 ppm ([3]; Heliothis virescens, 120 h, read-out: TBW: activity at 400 ppm against tobacco budworm (% Control rating)): 60 to 69%; pest or weed control at 400 ppm [4, 10]: 90 to 100%; pest or weed control at 50 ppm [7, 12]: 80 to 89%; pest or weed control at 200 ppm [5, 11]: < 50%
